Assay results reported in patent US9938257B2 (Sunshine Lake Pharma Co., Ltd., priority 2015, dated 2018).
pIC50: −log10 of the molar value.

Key:
[1] = Compound stability in rat liver microsomes; assay type: in vitro ADME; conditions: pH 7.4; for half-life at 5 μM: rat liver microsomes 0.5 mg protein/mL, compound 5 μM, NADPH 1.0 mM, 37° C., read-out: Rat T1/2; for CLint scaled at 5 μM: rat liver microsomes, in vivo CLint extrapolated
In short: (§1)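 After a 3-min preincubation, reactions of 5 μM compound with NADPH (1.0 mM) were started by adding microsomal protein to 0.5 mg/mL and run at 37° C in pH 7.4 phosphate buffer. Aliquots were stopped with ice-cold acetonitrile at up to 60 min. Parent levels were then measured by LC/MS/MS.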

[2] = Compound stability in human liver microsomes; assay type: in vitro ADME; conditions: pH 7.4; for half-life at 5 μM: human liver microsomes 0.5 mg protein/mL, compound 5 μM, NADPH 1.0 mM, 37° C., read-out: Human T1/2; for CLint scaled at 5 μM: human liver microsomes, in vivo CLint extrapolated
In short: as §1

JAK1 (h) = JAK1 (h) (Homo sapiens (Human), UniProt P23458); assay: JAK1 (h) kinase activity assay; assay type: biochemical
Method: (§2) The above assay procedure can be used to determine the IC50 for inhibition and/or the inhibition constant, Ki. The IC50 is defined as the concentration of compound required to reduce the enzyme activity by 50% under the condition of the assay. The IC50 value is estimated by preparing a 10 point curve using a ½ log dilution series (for example, a typical curve may be prepared using the following compound concentrations: 3 μM, 1 μM, 0.3 μM, 0.1 μM, 0.03 μM, 0.01 μM, 0.003 μM, 0.001 μM, 0.0003 μM and 0 μM).
(§3) JAK1 (h) is incubated with 20 mM Tris/HCl pH 7.5, 0.2 mM EDTA, 500 μM GEEPLYWSFPAKKK, 10 mM MgAcetate and [γ-^33P-ATP] (specific activity approx. 500 cpm/pmol, concentration as required). The reaction is initiated by the addition of the MgATP mix. After incubation for 40 minutes at room temperature, the reaction is stopped by the addition of 3% phosphoric acid solution. 10 μL of the reaction is then spotted onto a P30 filtermat and washed three times for 5 minutes in 75 mM phosphoric acid and once in methanol prior to drying and scintillation counting.
(§4) The kinase assays described herein were performed at Millipore UK Ltd, Dundee Technology Park, Dundee DD2 1SW, UK.

Aurora-A (h) = Aurora-A (h) (Homo sapiens (Human), UniProt O14965); assay: Aurora-A (h) kinase activity assay; assay type: biochemical
Method: as §2
as §3, with “Aurora-A (h)” for “JAK1 (h)”, “with 8” for “with 20”, “mM MOPS” for “mM Tris/HCl”, “pH 7.0,” for “pH 7.5,”, “EDTA, 200” for “EDTA, 500”, “μM LRRASLG (Kemptide),” for “μM GEEPLYWSFPAKKK,”
as §4

[3] = Pharmacokinetics after intravenous and oral administration in rats; assay type: in vivo
In short: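 IV doses generally 0.5, 1 or 2 mg/kg; oral doses in rats generally 0.5, 1, 5 or 10 mg/kg, given as solution, suspension or capsule in various vehicles. Blood sampled over 0.083 or 0.25 h to 24 h; plasma analysed by LC/MS/MS.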

JAK2 (h) = JAK2 (h) (Homo sapiens (Human), UniProt O60674); assay: JAK2 (h) kinase activity assay; assay type: biochemical
Method: as §2
as §3, with “JAK2 (h)” for “JAK1 (h)”, “with 8” for “with 20”, “mM MOPS” for “mM Tris/HCl”, “pH 7.0,” for “pH 7.5,”, “EDTA, 100” for “EDTA, 500”, “μM […],” for “μM GEEPLYWSFPAKKK,”
as §4

FLT3 (h) = FLT3 (h) (Homo sapiens (Human), UniProt P36888); assay: FLT3 (h) kinase activity assay; assay type: biochemical
Method: as §2
as §3, with “FLT3” for “JAK1”, “8” for “20”, “MOPS” for “Tris/HCl”, “7.0,” for “7.5,”, “[…] EAIYAAPFAKKK,” for “500 μM GEEPLYWSFPAKKK,”
as §4

Aurora-B (h) = Aurora-B (h) (Homo sapiens (Human), UniProt Q96GD4); assay: Aurora-B (h) kinase activity assay; assay type: biochemical
Method: as §2
Aurora-B (h) is incubated with 8 mM MOPS pH 7.0, 0.2 mM EDTA, 30 μM AKRRRLSSLRA, 10 mM MgAcetate and [γ-^33PATP] (specific activity approx. 500 cpm/pmol, concentration as required). The reaction is initiated by the addition of the MgATP mix. After incubation for 40 minutes at room temperature, the reaction is stopped by the addition of a 3% phosphoric acid solution. 10 μL of the reaction is then spotted onto a P30 filtermat and washed three times for 5 minutes in 75 mM phosphoric acid and once in methanol prior to drying and scintillation counting.
as §4

[4] = rat, plasma, iv dosing, dose 1 mg/kg

Sequence of JAK2 (h) (O60674 whole entry): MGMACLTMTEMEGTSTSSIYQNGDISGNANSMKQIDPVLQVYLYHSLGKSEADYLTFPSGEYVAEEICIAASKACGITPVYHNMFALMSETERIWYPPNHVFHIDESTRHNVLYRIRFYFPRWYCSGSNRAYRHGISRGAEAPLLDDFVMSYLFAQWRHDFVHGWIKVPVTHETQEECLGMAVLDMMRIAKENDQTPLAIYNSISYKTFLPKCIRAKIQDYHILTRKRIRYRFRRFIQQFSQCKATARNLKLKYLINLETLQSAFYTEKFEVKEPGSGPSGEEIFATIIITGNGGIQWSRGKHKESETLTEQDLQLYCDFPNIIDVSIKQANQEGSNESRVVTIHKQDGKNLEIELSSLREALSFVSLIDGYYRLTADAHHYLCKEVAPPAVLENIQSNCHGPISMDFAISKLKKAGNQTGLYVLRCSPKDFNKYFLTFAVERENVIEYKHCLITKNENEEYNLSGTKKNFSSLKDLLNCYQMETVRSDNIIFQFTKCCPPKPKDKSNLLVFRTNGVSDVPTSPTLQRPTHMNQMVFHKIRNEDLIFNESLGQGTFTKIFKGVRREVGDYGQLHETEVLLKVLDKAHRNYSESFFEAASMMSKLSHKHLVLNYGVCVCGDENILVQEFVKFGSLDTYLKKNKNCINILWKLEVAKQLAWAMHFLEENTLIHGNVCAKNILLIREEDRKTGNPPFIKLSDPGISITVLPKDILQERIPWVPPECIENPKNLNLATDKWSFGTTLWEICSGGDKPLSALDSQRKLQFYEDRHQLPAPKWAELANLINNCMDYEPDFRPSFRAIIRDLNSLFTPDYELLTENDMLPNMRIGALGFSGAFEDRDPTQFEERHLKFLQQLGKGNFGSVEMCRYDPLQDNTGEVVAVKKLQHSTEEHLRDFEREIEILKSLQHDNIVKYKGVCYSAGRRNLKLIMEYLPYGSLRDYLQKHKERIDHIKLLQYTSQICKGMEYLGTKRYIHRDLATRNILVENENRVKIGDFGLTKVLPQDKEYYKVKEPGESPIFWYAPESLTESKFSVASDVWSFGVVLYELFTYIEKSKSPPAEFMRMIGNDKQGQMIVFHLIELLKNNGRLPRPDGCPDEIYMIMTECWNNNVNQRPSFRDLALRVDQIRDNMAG
Sequence of Aurora-A (h) (O14965 whole entry): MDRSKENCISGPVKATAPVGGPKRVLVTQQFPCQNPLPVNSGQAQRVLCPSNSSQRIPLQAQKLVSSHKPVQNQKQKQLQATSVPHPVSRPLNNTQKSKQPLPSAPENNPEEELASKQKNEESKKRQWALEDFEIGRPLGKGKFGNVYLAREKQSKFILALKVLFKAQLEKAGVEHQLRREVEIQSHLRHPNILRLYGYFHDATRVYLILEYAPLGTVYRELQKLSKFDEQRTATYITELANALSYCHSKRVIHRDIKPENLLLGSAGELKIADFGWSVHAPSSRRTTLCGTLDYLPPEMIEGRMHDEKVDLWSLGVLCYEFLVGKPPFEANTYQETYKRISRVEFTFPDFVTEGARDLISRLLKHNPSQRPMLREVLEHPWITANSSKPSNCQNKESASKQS
Sequence of JAK1 (h) (P23458 whole entry): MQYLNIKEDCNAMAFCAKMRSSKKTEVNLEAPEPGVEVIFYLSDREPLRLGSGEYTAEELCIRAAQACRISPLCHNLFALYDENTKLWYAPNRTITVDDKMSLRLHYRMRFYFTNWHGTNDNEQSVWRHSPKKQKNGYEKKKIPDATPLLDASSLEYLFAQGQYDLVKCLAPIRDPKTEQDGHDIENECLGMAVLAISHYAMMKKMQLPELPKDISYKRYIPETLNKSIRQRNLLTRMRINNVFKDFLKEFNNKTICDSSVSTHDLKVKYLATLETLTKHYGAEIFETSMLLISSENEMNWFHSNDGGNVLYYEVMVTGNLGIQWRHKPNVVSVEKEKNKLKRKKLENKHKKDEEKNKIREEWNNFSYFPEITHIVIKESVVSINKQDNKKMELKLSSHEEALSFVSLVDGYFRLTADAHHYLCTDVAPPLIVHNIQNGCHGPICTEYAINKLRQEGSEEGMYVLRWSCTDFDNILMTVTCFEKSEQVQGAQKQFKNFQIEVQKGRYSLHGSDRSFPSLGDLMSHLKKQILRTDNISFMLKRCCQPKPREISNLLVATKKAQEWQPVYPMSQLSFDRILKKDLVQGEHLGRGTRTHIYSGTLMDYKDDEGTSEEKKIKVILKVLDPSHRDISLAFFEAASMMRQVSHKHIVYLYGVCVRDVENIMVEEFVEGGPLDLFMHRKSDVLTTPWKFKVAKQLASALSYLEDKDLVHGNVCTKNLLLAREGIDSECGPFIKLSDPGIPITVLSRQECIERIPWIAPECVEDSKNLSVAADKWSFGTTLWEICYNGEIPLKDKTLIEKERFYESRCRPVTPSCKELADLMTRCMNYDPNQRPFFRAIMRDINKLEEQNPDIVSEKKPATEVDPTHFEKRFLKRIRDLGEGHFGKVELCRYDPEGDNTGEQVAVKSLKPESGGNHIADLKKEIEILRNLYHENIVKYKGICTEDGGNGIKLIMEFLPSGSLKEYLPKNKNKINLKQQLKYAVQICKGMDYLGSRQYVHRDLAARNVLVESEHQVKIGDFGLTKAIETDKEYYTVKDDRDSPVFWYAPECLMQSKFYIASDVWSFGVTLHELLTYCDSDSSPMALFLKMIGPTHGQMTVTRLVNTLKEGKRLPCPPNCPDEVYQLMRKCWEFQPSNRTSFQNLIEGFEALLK
Sequence of Aurora-B (h) (Q96GD4 whole entry): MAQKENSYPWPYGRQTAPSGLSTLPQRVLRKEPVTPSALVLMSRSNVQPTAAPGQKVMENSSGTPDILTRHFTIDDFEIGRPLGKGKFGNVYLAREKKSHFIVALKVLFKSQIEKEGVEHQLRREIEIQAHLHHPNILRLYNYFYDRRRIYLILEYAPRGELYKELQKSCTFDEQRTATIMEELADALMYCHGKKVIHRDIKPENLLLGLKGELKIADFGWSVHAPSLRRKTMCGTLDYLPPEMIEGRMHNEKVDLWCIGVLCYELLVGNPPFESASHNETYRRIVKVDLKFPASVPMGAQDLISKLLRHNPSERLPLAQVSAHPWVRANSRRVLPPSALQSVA
Sequence of FLT3 (h) (P36888 27-993): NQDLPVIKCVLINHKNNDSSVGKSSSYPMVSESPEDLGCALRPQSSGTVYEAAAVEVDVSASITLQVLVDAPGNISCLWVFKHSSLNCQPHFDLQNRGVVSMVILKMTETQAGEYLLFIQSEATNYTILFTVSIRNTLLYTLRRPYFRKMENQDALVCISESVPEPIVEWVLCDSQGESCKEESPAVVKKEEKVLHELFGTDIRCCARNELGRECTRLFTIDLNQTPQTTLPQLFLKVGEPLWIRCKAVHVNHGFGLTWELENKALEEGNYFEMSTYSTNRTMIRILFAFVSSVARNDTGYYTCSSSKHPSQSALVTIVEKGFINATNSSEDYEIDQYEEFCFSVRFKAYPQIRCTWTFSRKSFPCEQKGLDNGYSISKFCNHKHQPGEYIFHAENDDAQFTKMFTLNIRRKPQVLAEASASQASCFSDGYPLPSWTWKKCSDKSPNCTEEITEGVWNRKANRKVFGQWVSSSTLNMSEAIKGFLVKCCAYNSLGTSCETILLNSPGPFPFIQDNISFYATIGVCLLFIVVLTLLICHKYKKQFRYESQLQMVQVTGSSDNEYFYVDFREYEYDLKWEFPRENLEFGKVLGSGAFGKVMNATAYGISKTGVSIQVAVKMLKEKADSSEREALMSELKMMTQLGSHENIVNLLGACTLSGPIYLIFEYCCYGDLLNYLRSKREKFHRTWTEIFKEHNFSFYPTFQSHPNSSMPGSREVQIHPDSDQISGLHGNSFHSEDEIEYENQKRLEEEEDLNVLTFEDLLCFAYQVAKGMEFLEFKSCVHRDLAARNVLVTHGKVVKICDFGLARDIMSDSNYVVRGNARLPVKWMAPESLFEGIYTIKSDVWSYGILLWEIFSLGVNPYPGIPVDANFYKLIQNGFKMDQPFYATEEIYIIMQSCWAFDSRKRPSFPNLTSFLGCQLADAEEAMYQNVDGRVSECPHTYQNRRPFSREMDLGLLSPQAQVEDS

In the case of `CC(C)(O)Cn1cc(Nc2ncc(Cl)c(NC3CCC4(CC3)CCN(S(C)(=O)=O)CC4)n2)cn1` [Ex. 37, 1-(4-((5-chloro-4-((3-(methylsulfonyl)-3-azaspiro[5.5]undecan-9-yl)amino)pyrimidin-2-yl)amino)-1H-pyrazol-1-yl)-2-methylpropan-2-ol], the half-life at 5 μM [1] was 1.17 h, the CLint scaled at 5 μM [1] was 2.11 L/h/kg and the half-life at 5 μM [2] was 0.905 h. It also gave a CLint scaled at 5 μM [2] of 1.92 L/h/kg, a pIC50 (JAK1 (h)) of 8.70 and a pIC50 (Aurora-A (h)) of 7.15. The “Clearance (CL) after iv dosing” value ([3]; iv dosing, dose 1 mg/kg) was 1.76 L/h/kg, the F ([3]; oral bioavailability, iv dose 1 mg/kg) was 53.6% and the AUC(0-t) [3, 4] was 0.604 µg·h/mL. The half-life [3, 4] was 1.25 h, the Vd ([3]; rat, plasma, iv dosing, dose 1 mg/kg, read-out: Vss) was 2.61 L/kg and the pIC50 (JAK2 (h)) was 6.88.

`COc1ccc(-n2cc(Nc3ncc(Cl)c(NC4CC5CN(C(=O)CC#N)CC5C4)n3)cn2)cn1` (centres unmarked) [Ex. 10, 3-(5-((5-chloro-2-((1-(6-methoxypyridin-3-yl)-1H-pyrazol-4-yl)amino)pyrimidin-4-yl)amino)hexahydrocyclopenta[c]pyrrol-2(1H)-yl)-3-oxopropanenitrile] gave a pIC50 (JAK1 (h)) greater than 9.52, a pIC50 (Aurora-A (h)) of 8.40 and a pIC50 (JAK2 (h)) of 7.80.

With `CCOC(=O)N1CC2CC(Nc3nc(Nc4cnn(C)c4)ncc3Cl)CC2C1` (centres unmarked) [Ex. 15, ethyl 5-((5-chloro-2-((1-methyl-1H-pyrazol-4-yl)amino)pyrimidin-4-yl)amino)hexahydrocyclopenta[c]pyrrole-2(1H)-carboxylate] the pIC50 (FLT3 (h)) was 6.30, the pIC50 (JAK1 (h)) was 8.10 and the pIC50 (Aurora-B (h)) was 8.70. The pIC50 (Aurora-A (h)) was 8.00 and the pIC50 (JAK2 (h)) was 6.87.

Work on `CCNC(=O)N1CC2CC(Nc3nc(Nc4cnn(C)c4)ncc3Cl)CC2C1` (centres unmarked) [Ex. 18, 5-((5-chloro-2-((1-methyl-1H-pyrazol-4-yl)amino)pyrimidin-4-yl)amino)-N-ethylhexahydrocyclopenta[c]pyrrole-2(1H)-carboxamide] yielded a pIC50 (FLT3 (h)) of 5.99, a half-life at 5 μM [1] of 0.158 h and a CLint scaled at 5 μM [1] of 15.8 L/h/kg. For the same compound, the half-life at 5 μM [2] was 2.42 h, the CLint scaled at 5 μM [2] was 0.719 L/h/kg and the pIC50 (JAK1 (h)) was 7.92. The pIC50 (Aurora-B (h)) was 8.70, the pIC50 (Aurora-A (h)) was 7.96 and the pIC50 (JAK2 (h)) was 6.85.

`N#CCC(=O)N1CC2CC(Nc3nc(Nc4cnn(-c5ccccn5)c4)ncc3Cl)CC2C1` (centres unmarked) [Ex. 7, 3-(5-((5-chloro-2-((1-(pyridin-2-yl)-1H-pyrazol-4-yl)amino)pyrimidin-4-yl)amino)hexahydrocyclopenta[c]pyrrol-2(1H)-yl)-3-oxopropanenitrile] gave a pIC50 (JAK1 (h)) of 9.22, a pIC50 (Aurora-A (h)) of 8.10 and a pIC50 (JAK2 (h)) of 7.70.
